According to ChEMBL document CHEMBL1154267, “Imidazo[1,5-a][1,2,4]-triazolo[1,5-d][1,4]benzodiazepines as potent and highly selective GABAA alpha5 inverse agonists with potential for the treatment of cognitive dysfunction” (Bioorg Med Chem Lett, 2009):
≈ marks a conversion by molar mass, not a printed value. Calls of active or inactive are those of the source. The rule behind the calls is not given here.

Tests used:
[1] = target: T1, GABA-A receptor; alpha-5/beta-3/gamma-2 (Homo sapiens, UniProt P18507+P28472+P31644); experiment: Displacement of [3H]flumazenil from GABAA alpha-5-beta-3-gamma-2 receptor; type: protein-complex assay
T1 sequence (P18507 whole entry): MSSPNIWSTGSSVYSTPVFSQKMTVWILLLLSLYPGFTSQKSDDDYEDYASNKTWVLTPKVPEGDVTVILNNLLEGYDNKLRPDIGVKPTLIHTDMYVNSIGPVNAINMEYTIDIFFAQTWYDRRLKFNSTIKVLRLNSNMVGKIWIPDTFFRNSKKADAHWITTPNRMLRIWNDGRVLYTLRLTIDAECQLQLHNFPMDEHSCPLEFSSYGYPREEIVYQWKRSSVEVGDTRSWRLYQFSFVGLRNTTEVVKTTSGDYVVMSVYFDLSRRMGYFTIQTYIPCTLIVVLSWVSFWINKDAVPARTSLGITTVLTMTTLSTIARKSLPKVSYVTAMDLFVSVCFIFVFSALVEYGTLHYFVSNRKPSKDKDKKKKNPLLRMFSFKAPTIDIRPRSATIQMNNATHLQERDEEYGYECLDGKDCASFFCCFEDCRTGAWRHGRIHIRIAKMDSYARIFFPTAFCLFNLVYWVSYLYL
T1 sequence (P28472 whole entry): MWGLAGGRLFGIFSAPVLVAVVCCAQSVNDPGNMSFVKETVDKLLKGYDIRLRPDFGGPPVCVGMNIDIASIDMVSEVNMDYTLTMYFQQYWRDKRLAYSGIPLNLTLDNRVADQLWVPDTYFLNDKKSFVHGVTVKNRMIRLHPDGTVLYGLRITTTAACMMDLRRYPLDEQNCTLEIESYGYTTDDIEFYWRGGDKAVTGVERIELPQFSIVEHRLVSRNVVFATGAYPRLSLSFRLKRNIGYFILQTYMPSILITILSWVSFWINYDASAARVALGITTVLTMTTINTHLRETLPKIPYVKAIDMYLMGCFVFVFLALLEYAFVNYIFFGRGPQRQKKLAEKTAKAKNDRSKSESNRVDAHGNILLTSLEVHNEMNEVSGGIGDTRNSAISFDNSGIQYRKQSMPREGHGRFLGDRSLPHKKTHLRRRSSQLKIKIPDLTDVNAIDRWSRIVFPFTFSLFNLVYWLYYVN
T1 sequence (P31644 whole entry): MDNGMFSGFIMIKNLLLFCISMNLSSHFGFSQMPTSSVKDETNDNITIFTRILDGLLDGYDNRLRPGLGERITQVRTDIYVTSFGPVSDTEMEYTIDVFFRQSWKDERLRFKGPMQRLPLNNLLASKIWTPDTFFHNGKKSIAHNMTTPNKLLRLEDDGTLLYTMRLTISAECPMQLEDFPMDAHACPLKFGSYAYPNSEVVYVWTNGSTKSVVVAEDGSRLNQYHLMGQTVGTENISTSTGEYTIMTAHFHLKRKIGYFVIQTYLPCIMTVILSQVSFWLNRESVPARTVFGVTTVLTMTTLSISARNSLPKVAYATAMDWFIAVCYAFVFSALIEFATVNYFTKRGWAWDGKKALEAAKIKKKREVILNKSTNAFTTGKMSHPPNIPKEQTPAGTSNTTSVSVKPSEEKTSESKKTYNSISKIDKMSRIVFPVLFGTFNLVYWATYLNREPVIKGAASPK

[2] = target: T2, GABA-A receptor; alpha-1/beta-3/gamma-2 (Homo sapiens, UniProt P14867+P18507+P28472); experiment: Displacement of [3H]flumazenil from GABAA alpha-1-beta-3-gamma-2 receptor; type: protein-complex assay
T2 sequence (P14867 whole entry): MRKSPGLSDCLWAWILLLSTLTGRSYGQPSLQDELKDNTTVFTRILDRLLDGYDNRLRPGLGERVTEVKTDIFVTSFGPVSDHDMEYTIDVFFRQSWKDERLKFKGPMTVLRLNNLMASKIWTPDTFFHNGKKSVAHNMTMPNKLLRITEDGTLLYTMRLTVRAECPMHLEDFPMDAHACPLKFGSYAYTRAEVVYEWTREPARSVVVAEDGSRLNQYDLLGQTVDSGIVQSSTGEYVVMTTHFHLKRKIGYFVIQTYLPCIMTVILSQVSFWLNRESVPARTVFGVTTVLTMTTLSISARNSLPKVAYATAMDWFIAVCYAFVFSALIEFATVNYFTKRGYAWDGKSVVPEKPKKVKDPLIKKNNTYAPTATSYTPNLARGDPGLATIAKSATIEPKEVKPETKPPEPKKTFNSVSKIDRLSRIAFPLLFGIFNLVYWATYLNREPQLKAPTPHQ
T2 sequence (P18507 whole entry): T1 sequence (P18507 whole entry)
T2 sequence (P28472 whole entry): T1 sequence (P28472 whole entry)

[3] = target: T3, GABA-A receptor; alpha-2/beta-3/gamma-2 (Homo sapiens, UniProt P18507+P28472+P47869); experiment: Displacement of [3H]flumazenil from GABAA alpha-2-beta-3-gamma-2 receptor; type: protein-complex assay
T3 sequence (P18507 whole entry): T1 sequence (P18507 whole entry)
T3 sequence (P28472 whole entry): T1 sequence (P28472 whole entry)
T3 sequence (P47869 whole entry): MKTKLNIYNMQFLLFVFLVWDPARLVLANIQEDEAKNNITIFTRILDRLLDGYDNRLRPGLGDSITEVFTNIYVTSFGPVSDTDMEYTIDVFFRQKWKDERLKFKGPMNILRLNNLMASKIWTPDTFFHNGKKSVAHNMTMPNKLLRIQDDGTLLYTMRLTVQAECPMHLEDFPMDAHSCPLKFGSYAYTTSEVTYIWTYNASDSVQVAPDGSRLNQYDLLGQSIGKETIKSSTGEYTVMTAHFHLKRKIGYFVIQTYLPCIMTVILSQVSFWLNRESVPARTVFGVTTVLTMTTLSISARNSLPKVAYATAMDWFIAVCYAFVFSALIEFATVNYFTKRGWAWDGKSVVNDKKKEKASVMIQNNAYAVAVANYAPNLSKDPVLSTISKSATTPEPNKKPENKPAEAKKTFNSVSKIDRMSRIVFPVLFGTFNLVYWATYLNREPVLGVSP

[4] = target: T4, GABA-A receptor; alpha-3/beta-3/gamma-2 (Homo sapiens, UniProt P18507+P28472+P34903); experiment: Displacement of [3H]flumazenil from GABAA alpha-3-beta-3-gamma-2 receptor; type: protein-complex assay
T4 sequence (P18507 whole entry): T1 sequence (P18507 whole entry)
T4 sequence (P28472 whole entry): T1 sequence (P28472 whole entry)
T4 sequence (P34903 whole entry): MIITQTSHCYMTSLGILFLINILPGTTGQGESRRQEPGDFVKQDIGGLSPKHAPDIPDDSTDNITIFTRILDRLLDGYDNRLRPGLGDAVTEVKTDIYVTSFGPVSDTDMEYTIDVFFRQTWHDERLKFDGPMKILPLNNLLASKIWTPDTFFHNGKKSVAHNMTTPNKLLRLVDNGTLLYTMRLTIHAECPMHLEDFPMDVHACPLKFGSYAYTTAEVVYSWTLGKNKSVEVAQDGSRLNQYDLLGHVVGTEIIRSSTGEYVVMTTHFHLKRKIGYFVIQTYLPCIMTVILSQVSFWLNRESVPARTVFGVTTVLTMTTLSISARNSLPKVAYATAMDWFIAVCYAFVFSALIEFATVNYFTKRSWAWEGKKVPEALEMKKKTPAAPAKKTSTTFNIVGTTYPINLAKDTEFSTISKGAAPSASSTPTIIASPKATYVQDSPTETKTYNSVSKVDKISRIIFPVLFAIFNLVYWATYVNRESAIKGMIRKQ

[5] = target: GABA-A receptor; alpha-5/beta-3/gamma-2 (Homo sapiens) (UniProt P18507+P28472+P31644); experiment: Inverse agonist activity at GABAA alpha-5-beta-3-gamma-2 receptor assessed as modulation of GABA-induced chloride ion flux by electrophysiology assay relative to GABA; type: functional
[6] = Selectivity ratio of Ki for GABAA alpha-1-beta-3-gamma-2 receptor to Ki for GABAA alpha-5-beta-3-gamma-2 receptor
[7] = Selectivity ratio of Ki for GABAA alpha-2-beta-3-gamma-2 receptor to Ki for GABAA alpha-5-beta-3-gamma-2 receptor
[8] = Selectivity ratio of Ki for GABAA alpha-3-beta-3-gamma-2 receptor to Ki for GABAA alpha-5-beta-3-gamma-2 receptor
[9] = target: GABA-A receptor; alpha-1/beta-3/gamma-2 (Homo sapiens) (UniProt P14867+P18507+P28472); experiment: Inverse agonist activity at GABAA alpha-1-beta-3-gamma-2 receptor assessed as modulation of GABA-induced chloride ion flux by electrophysiology assay relative to GABA; type: functional
[10] = target: GABA-A receptor; alpha-2/beta-3/gamma-2 (Homo sapiens) (UniProt P18507+P28472+P47869); experiment: Inverse agonist activity at GABAA alpha-2-beta-3-gamma-2 receptor assessed as modulation of GABA-induced chloride ion flux by electrophysiology assay relative to GABA; type: functional
[11] = target: GABA-A receptor; alpha-3/beta-3/gamma-2 (Homo sapiens) (UniProt P18507+P28472+P34903); experiment: Inverse agonist activity at GABAA alpha-3-beta-3-gamma-2 receptor assessed as modulation of GABA-induced chloride ion flux by electrophysiology assay relative to GABA; type: functional
Rattus norvegicus = experiment: Behavioral effect in Lister hooded rat assessed as reversal of Scopolamine-induced impairment of working memory at 1 mg/kg, ip administered 30 mins before Scopolamine challenge by delayed match to position test; type: functional, organism-based; parameters: dose 1 mg/kg
[12] = Solubility of the compound; type: physicochemical
[13] = Lipophilicity, log D at pH 7.4; type: physicochemical; conditions: buffer
[14] = Permeability by PAMPA; type: ADME; conditions: read-out: permeability
[15] = Half life in rat; type: ADME, organism-based; conditions: in vivo
[16] = Clearance in rat; type: ADME, organism-based; conditions: in vivo
[17] = Volume of distribution at steady state in rat; type: ADME, organism-based; conditions: in vivo, read-out: Vdss
[18] = Oral bioavailability in rat; type: ADME, organism-based; conditions: in vivo
[19] = Ratio of drug level in brain to plasma in rat; type: ADME, organism-based; conditions: brain and plasma

| Structure (SMILES) | Ki [1] | Ki [2] | Ki [3] | Ki [4] | Efficacy [5] | Ratio Ki [6] | Ratio Ki [7] | Ratio Ki [8] | also measured |
| --- | --- | --- | --- | --- | --- | --- | --- | --- | --- |
| Cc1ncn2c1Cn1nc(CC3CC3)nc1-c1cc(Br)ccc1-2 | 5 nM | 538 nM | 407 nM | 407 nM | -12% | 2 | 2 | 2 | – |
| Cc1noc(Cc2nc3n(n2)Cc2c(C)ncn2-c2ccc(Br)cc2-3)n1 | 0.9 nM | 469 nM | 317 nM | 277 nM | -18% | – | – | – | – |
| Cc1cc(Cc2nc3n(n2)Cc2c(C)ncn2-c2ccccc2-3)on1 | 1.6 nM | – | – | – | – | 57 | 20 | 16 | – |
| Cc1cc(-c2nnc3c4ccccc4c(OCc4ccccn4)nn23)no1 | 1.5 nM | 1.5 nM | – | 1.5 nM | -41% | – | – | – | Efficacy [9]: -9%; Efficacy [10]: 11%; Efficacy [11]: 10%; Activity (Rattus norvegicus): Active |
| COc1ccc2c(c1)-c1nc(Cc3cc(C)no3)nn1Cc1c(C)ncn1-2 | 2.2 nM | – | – | – | -13% | 307 | 193 | 222 | – |
| Cc1ccc2c(c1)-c1nc(Cc3cc(C)no3)nn1Cc1c(C)ncn1-2 | 0.8 nM | – | – | – | -16% | 620 | 332 | 360 | – |
| COCc1nc2n(n1)Cc1c(C)ncn1-c1ccc(Br)cc1-2 | 13 nM | 619 nM | 693 nM | 592 nM | -3% | – | – | – | – |
| Cc1nc2n(n1)Cc1c(C)ncn1-c1ccc(Br)cc1-2 | 20 nM | 1420 nM | 3160 nM | 1620 nM | -17% | – | – | – | – |
| Cc1cc(Cc2nc3n(n2)Cc2c(C)ncn2-c2ccc(O)cc2-3)on1 | 1.2 nM | – | – | – | -7% | 99 | – | – | – |
| Cc1ncn2c1Cn1nc(C(C)(C)C)nc1-c1cc(Br)ccc1-2 | 146 nM | 3160 nM | 1070 nM | 1210 nM | – | – | – | – | – |
| Cc1cc(Cc2nc3n(n2)Cc2c(C)ncn2-c2ccc(OC(F)(F)F)cc2-3)on1 | 11 nM | – | – | – | -20% | 68 | 83 | 111 | – |
| Cc1ncn2c1Cn1ncnc1-c1cc(Br)ccc1-2 | 6 nM | 136 nM | 186 nM | 132 nM | -42% | – | – | – | Efficacy [9]: -16% |
| Cc1cc(Cc2nc3n(n2)Cc2c(C)ncn2-c2ccc(Br)cc2-3)on1 | 0.6 nM | 188 nM | 105 nM | 73 nM | -27% | 314 | 174 | 122 | solubility [12]: 7 µg/mL (≈ 17 µM); logD [13]: 2.6; Papp [14]: 3.3 ×10⁻⁶ cm/s; half-life [15]: 1.4 h; clearance [16]: 39 mL/min/kg; Vd [17]: 4.6 L/kg; bioavailability [18]: 34%; Kp [19]: 0.2 |
